This note sets out measurements from patent publication US11046686B2, “Thiadiazole IRAK4 compounds” (Gilead Sciences, Inc., priority 2018, dated 2021).

One assay relates to TNFα. In words: IRAK4 Monocyte TNFα Cell Based Assay. Further details: species or system human. To be noted: human monocytes; second part of Table 2, compounds 33-343; unit inferred; read-out: EC50 MONO TNF HTRF. The gist of the method: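 Human monocytes (5,000/well) pretreated with compound 1 h at 37 °C (0.1% DMSO final), then stimulated with 50 pg/ml LPS for 4 h. Secreted TNFα measured by TR-FRET two-antibody detection after overnight incubation at room temperature; % control relative to unstimulated and LPS-stimulated wells.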
For orientation: TR-FRET usually uses a lanthanide donor and a delayed reading to cut background.

Another assay addresses IRAK4 enzyme (Homo sapiens (Human), UniProt Q9NWZ3). In words: IRAK4 Biochemical Assay (TR-FRET, STK1 KinEASE). As to the method:
IRAK4 enzyme (Carna Biosciences, Chuo-ku, Kobe, Japan) activity was measured by detecting phosphorylated peptide substrate formation using an antibody against the phosphorylated peptide substrate. This is a time-resolved fluorescence resonance energy transfer (TR-FRET) immunoassay, based on the STK1 KinEASE Assay (Cisbio, Bedford, Mass.). The assay was designed as a simple two-step, endpoint assay (a 5 μl enzyme reaction followed by 5 μl stop and detect Solution) performed in ProxiPlate-384 Plus plates (Perkin Elmer, Waltham, Mass.). […] Compounds diluted in DMSO were spotted into 384 well plates using a Labcyte® Echo 550 Liquid Handling System prior to addition of IRAK4 enzyme and peptide substrate. Reaction solutions were delivered using a Multi-Flo (Bio-Tek Instruments). The enzyme and peptide solution was incubated with compound for 15 minutes at room temp before the reaction was initiated by the addition of ATP. The standard 5 μl reaction mixture contained 500 μM ATP, […] peptide (STK1 Peptide), 0.75 nM of IRAK4 in reaction buffer (50 mM HEPES, pH 7.0, 0.02% NaN3, 0.01% BSA, 0.1 mM Orthovanadate, 5 mM […], 0.025% NP-40, 1 mM DTT). After 120 min of incubation at room temperature, 5 μl of Stop and Detect Solution (1:100 Cryptate labeled anti-phosphorylated peptide antibody solution and 125 nM Tracer in a 50 mM HEPES pH 7.0 detection buffer containing sufficient EDTA) was added. The plate was then further incubated for 60 minutes at room temperature and read on Envision 2103 Multilabeled reader (PerkinElmer) with excitation/emission/FRET emission at 340 nm/615 nm665 nm, respectively. Fluorescence intensities at 615 nm and 665 nm emission wavelengths were expressed as aratio (665 nm/615 nm). Percentage of inhibition was calculated as below: % Inhibition=100×(Ratiosample−Ratio0% Inhibition)/(Ratio100% Inhibition−Ratio0% Inhibition)
The 0% inhibition value comes from control wells lacking inhibitor.

Where [1] appears, read: second part of Table 2, compounds 33-343, unit inferred, read-out: IC50 IRAK4-HTBS.

The structures appear in SMILES notation. Like-named read-outs stand apart in the source and are kept apart here.

Sequence of IRAK4 enzyme (Q9NWZ3 whole entry): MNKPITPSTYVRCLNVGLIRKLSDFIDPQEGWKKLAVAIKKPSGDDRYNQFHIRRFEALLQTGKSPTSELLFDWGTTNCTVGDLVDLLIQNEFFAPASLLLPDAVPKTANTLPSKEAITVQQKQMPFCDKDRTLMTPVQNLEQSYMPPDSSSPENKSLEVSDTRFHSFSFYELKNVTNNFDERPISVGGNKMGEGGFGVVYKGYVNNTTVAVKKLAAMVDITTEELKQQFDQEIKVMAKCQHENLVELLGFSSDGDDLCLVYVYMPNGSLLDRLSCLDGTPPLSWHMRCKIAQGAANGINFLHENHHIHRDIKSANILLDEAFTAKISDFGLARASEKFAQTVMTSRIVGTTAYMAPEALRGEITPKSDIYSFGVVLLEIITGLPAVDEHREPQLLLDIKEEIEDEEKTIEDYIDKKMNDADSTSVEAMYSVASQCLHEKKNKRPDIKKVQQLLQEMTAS

The term EC50 denotes the concentration needed to bring the measured effect to its halfway point. What is called IC50 is the concentration at which inhibition is half-maximal. For `CC(C)Nc1cc(-c2ccc3cc(C#N)cnn23)ncc1-c1nnc([C@@H]2C[C@H]2C(C)(C)O)s1` (single isomer, unassigned; isomer 1) [132 Isomer 1], the EC50 in the assay on TNFα was found to be 12.5 nM. Further, the IC50 at IRAK4 enzyme (setting [1]) was found to be 1.29 nM.

`CC(C)(O)[C@H]1C[C@@H]1c1nnc(-c2cnc(-c3ccc4cc(C#N)cnn34)cc2NC2COC2)s1` (single isomer, unassigned; isomer 1) [136 Isomer 1]: the EC50 in the assay on TNFα is 4.2 nM. Also, the IC50 at IRAK4 enzyme (setting [1]) was found to be 0.57 nM.

Turning to `CC(=O)N[C@@H]1CCN(c2nnc(-c3cnc(-c4ccc5cc(C#N)cnn45)cc3NC3(C)COC3)s2)CC1(F)F` (single isomer, unassigned; isomer 1) [147 Isomer 1], in the assay on TNFα, the 50% effective concentration (EC50) was 8.2 nM. Further, the IC50 on IRAK4 enzyme (setting [1]) amounted to 0.63 nM. On the same counts, the results for `CC(C)Nc1cc(-c2ccc3cc(C#N)cnn23)ncc1-c1nnc([C@H]2C[C@@H]2C(C)(C)O)s1` (single isomer, unassigned; isomer 2) [132 Isomer 2] are 15.2 nM and 1.3 nM. As to `CC(C)(O)[C@@H]1C[C@H]1c1nnc(-c2cnc(-c3ccc4cc(C#N)cnn34)cc2NC2COC2)s1` (single isomer, unassigned; isomer 2) [136 Isomer 2], the EC50 in the assay on TNFα stood at 4 nM. The half-inhibitory concentration (IC50) on IRAK4 enzyme (setting [1]) came out at 0.53 nM. The matching figures for `CC(=O)N[C@H]1CCN(c2nnc(-c3cnc(-c4ccc5cc(C#N)cnn45)cc3NC3(C)COC3)s2)CC1(F)F` (single isomer, unassigned; isomer 2) [147 Isomer 2]: 24.2 nM and 0.62 nM. The matching figures for `CC(C)(O)[C@@H]1C[C@@H]1c1nnc(-c2cnc(-c3ccc4cc(C#N)cnn34)cc2NC2COC2)s1` (single isomer, unassigned; isomer 3) [136 Isomer 3]: 39 nM and 0.64 nM. In turn, `CC(C)Nc1cc(-c2ccc3cc(C#N)cnn23)ncc1-c1nnc(C(=O)N2CCC[C@@H]2CN)s1` [Compound 230, (R)-7-(5-(5-(2-(aminomethyl)pyrrolidine-1-carbonyl)-1,3,4-thiadiazol-2-yl)-4-(isopropylamino)pyridin-2-yl)pyrrolo[1,2-b]pyridazine-3-carbonitrile] yielded an IC50 on IRAK4 enzyme of 0.74 nM. Take `CC(=O)NC12CCC(c3nnc(-c4cnc(-c5ccc6cc(C#N)cnn56)cc4N[C@H](C)C#N)s3)(CC1)CC2` [Example 72, (R)—N-(4-(5-(4-((1-cyanoethyl)amino)-6-(3-cyanopyrrolo[1,2-b]pyridazin-7-yl)pyridin-3-yl)-1,3,4-thiadiazol-2-yl)bicyclo[2.2.2]octan-1-yl)acetamide]: the IC50 on IRAK4 enzyme was determined as 0.54 nM. Still for that read-out and setting: the figure for `CC(C)Nc1cc(-c2ccc3cc(C#N)cnn23)ncc1-c1nnc(N2C[C@H]3CC[C@@H](C2)[C@@H]3NC(=O)[C@@H](C)O)s1` [Example 90, (R)—N-((1R,5S,8s)-3-(5-(6-(3-cyanopyrrolo[1,2-b]pyridazin-7-yl)-4-(isopropylamino)pyridin-3-yl)-1,3,4-thiadiazol-2-yl)-3-azabicyclo[3.2.1]octan-8-yl)-2-hydroxypropanamide] is 1.39 nM. For `CC(C)Nc1cc(-c2ccc3cc(C#N)cnn23)ncc1-c1nnc(N2C[C@H]3CC[C@@H](C2)[C@@H]3NC(=O)N2CCN(C)CC2)s1` [Example 96, N-((1R,5S,8s)-3-(5-(6-(3-cyanopyrrolo[1,2-b]pyridazin-7-yl)-4-(isopropylamino)pyridin-3-yl)-1,3,4-thiadiazol-2-yl)-3-azabicyclo[3.2.1]octan-8-yl)-4-methylpiperazine-1-carboxamide], the IC50 against IRAK4 enzyme was 0.58 nM. For the molecule `CC(=O)N1CCN(C(=O)N[C@@H]2[C@@H]3CC[C@H]2CN(c2nnc(-c4cnc(-c5ccc6cc(C#N)cnn56)cc4NC(C)C)s2)C3)CC1` [Example 104, 4-acetyl-N-((1R,5S,8s)-3-(5-(6-(3-cyanopyrrolo[1,2-b]pyridazin-7-yl)-4-(isopropylamino)pyridin-3-yl)-1,3,4-thiadiazol-2-yl)-3-azabicyclo[3.2.1]octan-8-yl)piperazine-1-carboxamide], inhibition against IRAK4 enzyme was half-maximal at 0.99 nM (IC50). On the same count and under the same terms, the figure for `CC(C)Nc1cc(-c2ccc3cc(C#N)cnn23)ncc1-c1nnc(C2CCNCC2)s1` [Example 129, 7-(4-(isopropylamino)-5-(5-(piperidin-4-yl)-1,3,4-thiadiazol-2-yl)pyridin-2-yl)pyrrolo[1,2-b]pyridazine-3-carbonitrile] is 0.59 nM; for `CC(=O)NC12CCC(c3nnc(-c4cnc(-c5ccc6cc(C#N)cnn56)cc4NC4COC4)s3)(CC1)OC2` [Example 198, N-(1-(5-(6-(3-cyanopyrrolo[1,2-b]pyridazin-7-yl)-4-(oxetan-3-ylamino)pyridin-3-yl)-1,3,4-thiadiazol-2-yl)-2-oxabicyclo[2.2.2]octan-4-yl)acetamide] it is 0.79 nM. At IRAK4 enzyme, `CC(C)Nc1cc(-c2ccc3cc(C#N)cnn23)ncc1-c1nnc(C(=O)N2CCC[C@H]2CN)s1` [Example 229, (S)-7-(5-(5-(2-(aminomethyl)pyrrolidine-1-carbonyl)-1,3,4-thiadiazol-2-yl)-4-(isopropylamino)pyridin-2-yl)pyrrolo[1,2-b]pyridazine-3-carbonitrile] showed an IC50 of 0.64 nM.

For `CC(C)Nc1cc(-c2ccc3cc(C#N)cnn23)ncc1-c1nnc([C@H]2C[C@H](NC3COC3)C2)s1` [Example 283, 7-(4-(isopropylamino)-5-(5-((1r,3r)-3-(oxetan-3-ylamino)cyclobutyl)-1,3,4-thiadiazol-2-yl)pyridin-2-yl)pyrrolo[1,2-b]pyridazine-3-carbonitrile], on IRAK4 enzyme, the IC50 was determined as 0.66 nM. Turning to `CC(C)Nc1cc(-c2ccc3cc(C#N)cnn23)ncc1-c1nnc(N2C[C@H]3CC[C@@H](C2)[C@@H]3N2CCOC2=O)s1` [Example 301, 7-(4-(isopropylamino)-5-(5-((1R,5S,8s)-8-(2-oxooxazolidin-3-yl)-3-azabicyclo[3.2.1]octan-3-yl)-1,3,4-thiadiazol-2-yl)pyridin-2-yl)pyrrolo[1,2-b]pyridazine-3-carbonitrile], the EC50 in the assay on TNFα stood at 4.9 nM. Take `CC(=O)N1C[C@@H]2C[C@H]1CN2c1nnc(-c2cnc(-c3ccc4cc(C#N)cnn34)cc2NC(C)C)s1` [Example 302, 7-(5-(5-((1S,4S)-5-acety1-2,5-diazabicyclo[2.2.1]heptan-2-yl)-1,3,4-thiadiazol-2-yl)-4-(isopropylamino)pyridin-2-yl)pyrrolo[1,2-b]pyridazine-3-carbonitrile]: the EC50 in the assay with TNFα came out at 5.3 nM. Still for that read-out and setting: for `CC(C)Nc1cc(-c2ccc3cc(C#N)cnn23)ncc1-c1nnc(N2CCN(C3COC3)CC2)s1` [Example 304] the value was 9.8 nM; for `CC(C)Nc1cc(-c2ccc3cc(C#N)cnn23)ncc1-c1nnc(N2C[C@H]3CC[C@@H](C2)[C@@H]3Nc2ncccn2)s1` [Example 308, 7-(4-(isopropylamino)-5-(5-((1R,5S,8s)-8-(pyrimidin-2-ylamino)-3-azabicyclo[3.2.1]octan-3-yl)-1,3,4-thiadiazol-2-yl)pyridin-2-yl)pyrrolo[1,2-b]pyridazine-3-carbonitrile], 18.4 nM. With `CC(C)Nc1cc(-c2ccc3cc(C#N)cnn23)ncc1-c1nnc(N2C[C@H]3CC[C@@H](C2)[C@@H]3Nc2ncccc2F)s1` [Example 309], the EC50 in the assay on TNFα was 687 nM.

Take `CC(C)(O)C(=O)N[C@H]1CC[C@@H](c2nnc(-c3cnc(-c4ccc5cc(C#N)cnn45)cc3NC3COC3)s2)CC1` [Example 311, N-((1s,4s)-4-(5-(6-(3-cyanopyrrolo[1,2-b]pyridazin-7-yl)-4-(oxetan-3-ylamino)pyridin-3-yl)-1,3,4-thiadiazol-2-yl)cyclohexyl)-2-hydroxy-2-methylpropanamide]: the EC50 in the assay on TNFα came to 22.6 nM. For the molecule `CC(C)Nc1cc(-c2ccc3cc(C#N)cnn23)ncc1-c1nnc([C@H]2CC[C@@H](NC(=O)C(C)(C)O)CC2)s1` [Example 312, N-((1s,4s)-4-(5-(6-(3-cyanopyrrolo[1,2-b]pyridazin-7-yl)-4-(isopropylamino)pyridin-3-yl)-1,3,4-thiadiazol-2-yl)cyclohexyl)-2-hydroxy-2-methylpropanamide], in the assay with TNFα, the EC50 came to 17.5 nM. The same measure, in the same setting: for `CC(C)Nc1cc(-c2ccc3cc(C#N)cnn23)ncc1-c1nnc([C@H]2CC[C@H](NC(=O)C(C)(C)O)CC2)s1` [Example 315, N-((1r,4r)-4-(5-(6-(3-cyanopyrrolo[1,2-b]pyridazin-7-yl)-4-(isopropylamino)pyridin-3-yl)-1,3,4-thiadiazol-2-yl)cyclohexyl)-2-hydroxy-2-methylpropanamide] the value was 10.9 nM. Same read-out and setting: the figure for `CCOC(=O)Cc1nnc(-c2cnc(-c3ccc4cc(C#N)cnn34)cc2NC(C)C)s1` [Example 318] is 102 nM.
